Measured values published in patent US20260021059A1, “THERAPEUTIC COMBINATIONS AND METHODS” (RUTGERS, THE STATE UNIVERSITY OF NEW JERSEY, priority 2022, published 2026).
Entries after “also recorded” stand apart in the source; their conditions may differ.

Key:
rats [1] = experiment: Palatable food intake (binge-like eating) of a fat/sucrose mixture during 30 min exposure periods; type: in vivo; conditions: for palatable food intake: N=12; for palatable food intake (binge-like eating): N=5
Protocol: Rats were trained to consume a palatable fat mixture (90% vegetable shortening, 10% sucrose) during brief exposure periods (30 mins) that occurred twice per week. The amount of palatable food consumed during these 30 min exposure periods was measured.

rats [2] = experiment: Locomotor activity / behavioral sensitization on repeated (7 d) dosing; type: in vivo; conditions: d-amphetamine alone 0.375 mg/kg i.p., 7 consecutive days; recorded 1 hour following treatment
Protocol: Rats were measured for baseline locomotor activity (Day 0). Rats then received injections of saline, d-amphetamine, or the combination of d-amphetamine and suvorexant, for 7 consecutive days. Locomotor activity was recorded for 1 hour following treatment.

rats [3] = experiment: Sleep EEG/EMG telemetry recordings over the 12 hours inactive period; conditions: d-amphetamine alone 0.75 mg/kg i.p., 1 hr prior to onset of inactive period
BED patients = conditions: daily LDX administration; cited from earlier work

C[C@H](N)Cc1ccccc1 [d-amphetamine]
palatable food intake (rats [1]; d-amphetamine alone 0.1875 mg/kg i.p. prior to test session): no significant change; also recorded: no effect
palatable food intake (rats [1]; d-amphetamine alone 0.375 mg/kg i.p. prior to test session): no significant change; also recorded: no effect
locomotor activity (behavioral reactivity) (rats [2]): significantly higher; also recorded: increased locomotor activity
total time in REM sleep compared to baseline (rats [3]): decreased
total time in active wake compared to baseline (rats [3]): increased

Cc1ccc(-n2nccn2)c(C(=O)N2CCN(c3nc4cc(Cl)ccc4o3)CC[C@H]2C)c1 [suvorexant]
palatable food intake (rats [1]; suvorexant alone 10 mg/kg i.p. prior to test session): no significant change; also recorded: no effect

C[C@@H](Cc1ccccc1)NC(=O)[C@@H](N)CCCCN [LDX, lisdexamfetamine]
binge frequency (BED patients): highly effective at reducing binge frequency
patients reporting complete binge cessation (BED patients): 35-50%

Cc1nc2ccc(NC(=O)Nc3ccnc4cccnc34)cc2o1 [SB334867]
palatable food intake (binge-like eating) (rats [1]; SB334867 alone 10 mg/kg i.p.): observed only at the highest dose; also recorded: A significant reduction was observed only at a high dose
palatable food intake (binge-like eating) (rats [1]; SB334867 alone 30 mg/kg i.p.): significant change; also recorded: significant reduction
